Measured values published in patent US11597704B2, “2,4-diaminoquinazoline derivatives and medical uses thereof” (Janssen Sciences Ireland Unlimited Company, priority 2018, dated 2023).

Assays:
[1] = target: T1, human TLR8 (Homo sapiens, UniProt Q9NR97); test: TLR8 NFκB-luc cellular reporter assay in transiently transfected HEK293 cells; assay type: cell-based; settings: lowest effective concentration; HEK293 cells transfected with wild type TLR8 and NFκB-luc reporter, 6 h incubation
T1 construct: expressed in transfected cells; host or cells: HEK293
T1 sequence (Q9NR97 27-1041): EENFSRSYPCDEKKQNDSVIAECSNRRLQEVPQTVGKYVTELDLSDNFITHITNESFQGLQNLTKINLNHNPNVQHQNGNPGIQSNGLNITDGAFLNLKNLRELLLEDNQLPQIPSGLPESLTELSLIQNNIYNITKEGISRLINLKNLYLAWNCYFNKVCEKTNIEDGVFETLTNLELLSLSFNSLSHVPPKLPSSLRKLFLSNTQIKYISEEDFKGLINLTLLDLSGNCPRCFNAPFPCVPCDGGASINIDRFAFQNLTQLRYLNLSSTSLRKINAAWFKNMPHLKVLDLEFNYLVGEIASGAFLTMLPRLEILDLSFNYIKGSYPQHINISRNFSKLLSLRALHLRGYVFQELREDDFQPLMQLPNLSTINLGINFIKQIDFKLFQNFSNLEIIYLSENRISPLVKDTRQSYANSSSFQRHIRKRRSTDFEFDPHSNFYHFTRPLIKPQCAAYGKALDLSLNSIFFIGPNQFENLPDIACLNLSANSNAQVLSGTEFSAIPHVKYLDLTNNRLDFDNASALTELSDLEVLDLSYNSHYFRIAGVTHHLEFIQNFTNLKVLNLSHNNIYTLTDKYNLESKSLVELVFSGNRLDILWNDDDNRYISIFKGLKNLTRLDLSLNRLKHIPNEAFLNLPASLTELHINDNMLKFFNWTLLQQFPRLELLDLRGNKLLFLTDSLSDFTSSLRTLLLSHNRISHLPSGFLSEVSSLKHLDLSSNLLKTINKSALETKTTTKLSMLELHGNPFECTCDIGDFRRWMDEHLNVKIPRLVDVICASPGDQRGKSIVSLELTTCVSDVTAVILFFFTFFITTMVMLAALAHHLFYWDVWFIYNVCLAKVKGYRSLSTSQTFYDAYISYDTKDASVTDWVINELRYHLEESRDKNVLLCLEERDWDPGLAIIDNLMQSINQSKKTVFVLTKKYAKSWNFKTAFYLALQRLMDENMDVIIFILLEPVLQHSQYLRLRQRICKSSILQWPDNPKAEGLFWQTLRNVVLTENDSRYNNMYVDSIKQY
Description: (§1) The ability of compounds to activate human TLR7 and/or TLR8 was assessed in a cellular reporter assay using HEK293 cells transiently transfected with a TLR7 or TLR8 expression vector and NFκB-luc reporter construct. In one instance, the TLR expression construct expresses the respective wild type sequence or a mutant sequence comprising a deletion in the second leucine-rich repeat of the TLR.
(§2) HEK293 cells were grown in culture medium (DMEM supplemented with 10% FCS and 2 mM Glutamine). For transfection of cells in 10 cm dishes, cells were detached with Trypsin-EDTA, transfected with a mix of CMV-TLR7 or TLR8 plasmid (750 ng), NFκB-luc plasmid (375 ng) and a transfection reagent and incubated 24 h at 37° C. in a humidified 5% C02 atmosphere. Transfected cells were then detached with Trypsin-EDTA, washed in PBS and re-suspended in medium to a density of 1.67×10^5 cells/mL. Thirty microliters of cells were then dispensed into each well in 384-well plates, where 10 μL of compound in 4% DMSO was already present. Following 6 h incubation at 37° C., 5% CO2, the luciferase activity was determined by adding 15 μl of STEADY LITE PLUS substrate (PERKIN ELMER) to each well and readout performed on a VIEWLUX ULTRAHTS microplate imager (PERKIN ELMER). Dose response curves were generated from measurements performed in quadruplicates. Lowest effective concentrations (LEC) values, defined as the concentration that induces an effect which is at least two-fold above the standard deviation of the assay, were determined for each compound.

[2] = target: T2, human TLR7 (Homo sapiens, UniProt Q9NYK1); test: TLR7 NFκB-luc cellular reporter assay in transiently transfected HEK293 cells; assay type: cell-based; settings: lowest effective concentration; HEK293 cells transfected with wild type TLR7 and NFκB-luc reporter, 6 h incubation
T2 construct: expressed in transfected cells; host or cells: HEK293
T2 sequence (Q9NYK1 27-1049): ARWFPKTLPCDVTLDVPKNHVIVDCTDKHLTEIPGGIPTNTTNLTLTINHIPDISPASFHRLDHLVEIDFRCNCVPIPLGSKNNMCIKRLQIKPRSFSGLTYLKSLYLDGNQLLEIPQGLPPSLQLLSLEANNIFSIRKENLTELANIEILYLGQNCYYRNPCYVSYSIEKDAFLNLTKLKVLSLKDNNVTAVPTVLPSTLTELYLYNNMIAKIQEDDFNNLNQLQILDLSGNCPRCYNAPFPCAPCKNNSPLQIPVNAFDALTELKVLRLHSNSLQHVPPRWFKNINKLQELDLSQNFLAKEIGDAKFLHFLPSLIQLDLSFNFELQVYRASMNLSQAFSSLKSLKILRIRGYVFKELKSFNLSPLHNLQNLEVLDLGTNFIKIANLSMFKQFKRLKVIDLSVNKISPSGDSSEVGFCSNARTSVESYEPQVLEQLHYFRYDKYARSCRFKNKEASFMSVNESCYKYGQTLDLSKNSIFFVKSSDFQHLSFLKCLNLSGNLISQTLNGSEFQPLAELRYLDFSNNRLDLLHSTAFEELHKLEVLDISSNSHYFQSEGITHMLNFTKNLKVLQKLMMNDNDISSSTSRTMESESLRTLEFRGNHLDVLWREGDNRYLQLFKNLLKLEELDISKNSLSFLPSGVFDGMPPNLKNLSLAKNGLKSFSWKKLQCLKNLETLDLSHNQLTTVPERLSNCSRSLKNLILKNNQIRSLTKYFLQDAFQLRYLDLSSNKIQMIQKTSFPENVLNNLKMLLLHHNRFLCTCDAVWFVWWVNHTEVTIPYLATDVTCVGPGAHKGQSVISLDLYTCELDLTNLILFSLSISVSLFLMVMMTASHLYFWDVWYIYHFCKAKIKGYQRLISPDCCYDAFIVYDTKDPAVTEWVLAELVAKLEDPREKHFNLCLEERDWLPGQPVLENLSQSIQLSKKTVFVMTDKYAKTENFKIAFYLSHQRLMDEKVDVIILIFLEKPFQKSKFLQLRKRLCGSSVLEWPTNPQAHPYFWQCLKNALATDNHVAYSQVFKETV
Description: as §1, §2

hTLR8-wt (LEC) [1]: 1.81 µM | hTLR7-wt (LEC) [2]: 2.17 µM
SMILES: CCCC[C@H](CO)Nc1nc(N)nc2cccc(C(=O)NC)c12 [Compound 22, (R)-2-amino-4-((1-hydroxyhexan-2-yl)amino)-N-methylquinazoline-5-carboxamide]
